Among the targets are Histamine H1 receptor (Homo sapiens, UniProt P35367); Histamine H3 receptor (Homo sapiens, UniProt Q9Y5N1); Melanocortin receptor 4 (Homo sapiens, UniProt P32245).
The target in a further experiment is T1, Adenosine receptor A1 (Homo sapiens, UniProt P30542).
T1 sequence (P30542 whole entry): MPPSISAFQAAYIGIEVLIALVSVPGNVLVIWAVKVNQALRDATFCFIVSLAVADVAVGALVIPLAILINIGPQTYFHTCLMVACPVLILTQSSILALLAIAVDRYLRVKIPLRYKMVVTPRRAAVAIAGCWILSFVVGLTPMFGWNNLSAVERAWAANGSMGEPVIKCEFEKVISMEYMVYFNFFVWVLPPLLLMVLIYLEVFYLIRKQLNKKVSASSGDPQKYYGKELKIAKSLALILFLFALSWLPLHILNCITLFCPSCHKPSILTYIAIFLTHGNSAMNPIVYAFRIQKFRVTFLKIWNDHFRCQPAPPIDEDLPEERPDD

Experiment [1] has as its target Muscarinic acetylcholine receptor M3 (Homo sapiens, UniProt P20309).
For experiment [2], the target named is T2, Cannabinoid receptor 1 (Homo sapiens, UniProt P21554).
Experiment [3] concerns the target T3, Mu-type opioid receptor (Homo sapiens, UniProt P35372).
The target in experiment [4] is T4, Muscarinic acetylcholine receptor M2 (Homo sapiens, UniProt P08172).
T4 sequence (P08172 whole entry): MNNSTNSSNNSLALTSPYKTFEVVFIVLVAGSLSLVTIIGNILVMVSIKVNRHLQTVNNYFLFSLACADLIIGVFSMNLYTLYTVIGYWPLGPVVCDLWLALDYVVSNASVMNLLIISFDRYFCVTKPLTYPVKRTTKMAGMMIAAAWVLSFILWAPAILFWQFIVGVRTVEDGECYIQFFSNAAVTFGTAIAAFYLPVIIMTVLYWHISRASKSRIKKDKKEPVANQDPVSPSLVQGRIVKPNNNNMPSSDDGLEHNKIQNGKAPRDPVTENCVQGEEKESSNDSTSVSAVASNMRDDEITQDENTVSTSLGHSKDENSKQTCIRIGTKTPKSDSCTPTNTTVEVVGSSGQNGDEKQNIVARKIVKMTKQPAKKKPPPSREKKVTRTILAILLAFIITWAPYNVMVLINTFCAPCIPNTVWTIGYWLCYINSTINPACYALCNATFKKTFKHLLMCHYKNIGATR
Format: functional, cell-based.

For experiment [5], the target named is Voltage-dependent L-type calcium channel subunit alpha-1C (Rattus norvegicus, UniProt P22002). The class given is functional.
For the next experiment, the target named is T5, Estrogen receptor (Homo sapiens, UniProt P03372).
T5 sequence (P03372 whole entry): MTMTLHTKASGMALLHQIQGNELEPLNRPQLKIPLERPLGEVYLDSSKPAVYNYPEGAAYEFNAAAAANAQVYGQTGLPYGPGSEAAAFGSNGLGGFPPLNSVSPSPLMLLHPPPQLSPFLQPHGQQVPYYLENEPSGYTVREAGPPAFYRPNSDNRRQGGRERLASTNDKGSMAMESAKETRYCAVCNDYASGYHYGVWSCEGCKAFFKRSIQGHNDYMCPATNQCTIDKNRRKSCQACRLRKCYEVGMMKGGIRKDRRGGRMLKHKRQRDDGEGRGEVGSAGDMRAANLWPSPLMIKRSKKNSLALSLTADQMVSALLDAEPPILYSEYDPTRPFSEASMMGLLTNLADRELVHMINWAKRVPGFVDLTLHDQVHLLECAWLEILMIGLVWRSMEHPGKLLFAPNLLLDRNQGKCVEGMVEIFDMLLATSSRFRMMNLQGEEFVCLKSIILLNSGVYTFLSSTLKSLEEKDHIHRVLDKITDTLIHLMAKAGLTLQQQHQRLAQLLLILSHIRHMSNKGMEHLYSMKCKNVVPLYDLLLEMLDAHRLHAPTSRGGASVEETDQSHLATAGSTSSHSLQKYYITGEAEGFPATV

For experiment [6], the target named is T4, Muscarinic acetylcholine receptor M2. The class given is functional, cell-based. The source holds these as a separate data set.
The target of another experiment is T6, Endothelin-1 receptor (Homo sapiens, UniProt P25101).
T6 sequence (P25101 whole entry): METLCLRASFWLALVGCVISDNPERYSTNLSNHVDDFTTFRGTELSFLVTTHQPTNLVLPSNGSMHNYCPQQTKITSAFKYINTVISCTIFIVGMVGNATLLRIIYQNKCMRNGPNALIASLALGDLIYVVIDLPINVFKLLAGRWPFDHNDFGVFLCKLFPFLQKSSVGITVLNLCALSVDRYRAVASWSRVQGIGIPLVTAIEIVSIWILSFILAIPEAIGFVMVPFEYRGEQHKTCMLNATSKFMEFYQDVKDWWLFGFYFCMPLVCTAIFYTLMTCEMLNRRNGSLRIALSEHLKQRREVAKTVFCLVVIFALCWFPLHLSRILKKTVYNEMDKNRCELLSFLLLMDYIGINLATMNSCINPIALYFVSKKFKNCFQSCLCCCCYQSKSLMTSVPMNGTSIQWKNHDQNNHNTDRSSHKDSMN

The target of experiment [7] is T3, Mu-type opioid receptor. The experiment is described as follows: biochemical. The class given is functional.
Experiment [8] concerns the target T7, Alpha-1A adrenergic receptor (Homo sapiens, UniProt P35348).
T7 sequence (P35348 whole entry): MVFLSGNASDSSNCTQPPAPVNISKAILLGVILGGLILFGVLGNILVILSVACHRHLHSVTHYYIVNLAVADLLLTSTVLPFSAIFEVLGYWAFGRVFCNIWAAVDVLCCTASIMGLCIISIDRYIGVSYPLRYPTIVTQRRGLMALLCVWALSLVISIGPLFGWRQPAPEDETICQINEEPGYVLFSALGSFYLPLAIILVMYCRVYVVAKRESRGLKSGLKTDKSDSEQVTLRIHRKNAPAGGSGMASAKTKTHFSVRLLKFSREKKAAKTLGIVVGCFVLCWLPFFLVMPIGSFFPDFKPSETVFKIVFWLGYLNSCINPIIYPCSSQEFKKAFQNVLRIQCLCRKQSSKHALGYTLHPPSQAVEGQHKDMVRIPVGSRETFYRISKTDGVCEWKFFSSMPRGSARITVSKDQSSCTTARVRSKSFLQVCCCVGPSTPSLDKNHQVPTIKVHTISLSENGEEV
The class given is functional, cell-based.

Experiment [9] deals with T2, Cannabinoid receptor 1. The class given is functional, cell-based.
Experiment [10] deals with 5-hydroxytryptamine receptor 2A (Homo sapiens, UniProt P28223). Format: functional, cell-based.

A value given as a limit tells only on which side of the number the result lay.

The record followed here is ChEMBL document CHEMBL5291721, “A preclinical secondary pharmacology resource illuminates target-adverse drug reaction associations of marketed drugs” (Nat Commun, 2023).

The AC50 is the concentration at which the activity in the assay is half-maximal.
Note: assay procedure not described here.

Chain of 5-hydroxytryptamine receptor 2A (P28223 whole entry): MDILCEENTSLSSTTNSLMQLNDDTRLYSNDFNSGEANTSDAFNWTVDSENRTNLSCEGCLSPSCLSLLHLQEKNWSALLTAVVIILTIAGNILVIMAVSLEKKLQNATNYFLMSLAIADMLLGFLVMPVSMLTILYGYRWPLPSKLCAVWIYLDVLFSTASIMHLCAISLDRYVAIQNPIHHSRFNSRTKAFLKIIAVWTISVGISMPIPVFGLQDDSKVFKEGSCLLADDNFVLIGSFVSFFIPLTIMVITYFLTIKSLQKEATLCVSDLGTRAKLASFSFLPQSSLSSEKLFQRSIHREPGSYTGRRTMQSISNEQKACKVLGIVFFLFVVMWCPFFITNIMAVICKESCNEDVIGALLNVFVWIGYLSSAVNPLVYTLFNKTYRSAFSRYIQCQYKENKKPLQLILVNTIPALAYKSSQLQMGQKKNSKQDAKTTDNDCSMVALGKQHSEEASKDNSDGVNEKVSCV
Chain of Histamine H1 receptor (P35367 whole entry): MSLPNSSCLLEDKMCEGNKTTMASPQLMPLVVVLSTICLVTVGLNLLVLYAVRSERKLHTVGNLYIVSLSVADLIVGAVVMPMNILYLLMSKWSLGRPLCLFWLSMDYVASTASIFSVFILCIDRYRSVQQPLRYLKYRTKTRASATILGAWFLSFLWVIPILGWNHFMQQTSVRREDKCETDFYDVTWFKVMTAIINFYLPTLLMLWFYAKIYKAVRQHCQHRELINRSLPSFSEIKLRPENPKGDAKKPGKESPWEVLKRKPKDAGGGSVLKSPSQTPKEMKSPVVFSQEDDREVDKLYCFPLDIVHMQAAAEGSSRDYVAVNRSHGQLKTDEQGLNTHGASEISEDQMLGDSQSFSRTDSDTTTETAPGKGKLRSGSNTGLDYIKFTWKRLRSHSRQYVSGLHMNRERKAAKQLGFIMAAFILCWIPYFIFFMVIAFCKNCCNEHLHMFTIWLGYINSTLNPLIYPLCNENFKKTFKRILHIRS
Chain of Histamine H3 receptor (Q9Y5N1 whole entry): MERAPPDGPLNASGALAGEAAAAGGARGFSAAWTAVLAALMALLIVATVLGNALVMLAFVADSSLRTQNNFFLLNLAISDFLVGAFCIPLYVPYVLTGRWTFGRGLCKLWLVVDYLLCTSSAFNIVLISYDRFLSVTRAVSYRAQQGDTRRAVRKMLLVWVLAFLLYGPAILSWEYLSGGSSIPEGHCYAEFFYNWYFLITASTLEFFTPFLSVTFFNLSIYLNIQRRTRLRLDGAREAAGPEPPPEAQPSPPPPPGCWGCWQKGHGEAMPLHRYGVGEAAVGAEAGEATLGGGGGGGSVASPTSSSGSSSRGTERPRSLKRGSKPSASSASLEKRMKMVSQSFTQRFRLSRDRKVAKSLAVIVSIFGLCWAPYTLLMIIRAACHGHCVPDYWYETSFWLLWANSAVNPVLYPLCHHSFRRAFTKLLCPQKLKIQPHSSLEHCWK
T3 sequence (P35372 whole entry): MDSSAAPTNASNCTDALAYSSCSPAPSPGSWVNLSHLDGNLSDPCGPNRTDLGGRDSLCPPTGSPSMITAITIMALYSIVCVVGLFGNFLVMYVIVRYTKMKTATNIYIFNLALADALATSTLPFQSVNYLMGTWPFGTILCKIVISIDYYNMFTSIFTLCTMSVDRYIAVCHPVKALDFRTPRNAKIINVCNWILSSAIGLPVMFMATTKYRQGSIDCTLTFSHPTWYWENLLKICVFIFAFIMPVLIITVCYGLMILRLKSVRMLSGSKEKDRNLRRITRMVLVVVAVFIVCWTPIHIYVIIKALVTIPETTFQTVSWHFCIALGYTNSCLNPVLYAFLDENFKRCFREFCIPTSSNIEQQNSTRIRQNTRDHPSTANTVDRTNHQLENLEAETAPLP
Chain of Voltage-dependent L-type calcium channel subunit alpha-1C (P22002 whole entry): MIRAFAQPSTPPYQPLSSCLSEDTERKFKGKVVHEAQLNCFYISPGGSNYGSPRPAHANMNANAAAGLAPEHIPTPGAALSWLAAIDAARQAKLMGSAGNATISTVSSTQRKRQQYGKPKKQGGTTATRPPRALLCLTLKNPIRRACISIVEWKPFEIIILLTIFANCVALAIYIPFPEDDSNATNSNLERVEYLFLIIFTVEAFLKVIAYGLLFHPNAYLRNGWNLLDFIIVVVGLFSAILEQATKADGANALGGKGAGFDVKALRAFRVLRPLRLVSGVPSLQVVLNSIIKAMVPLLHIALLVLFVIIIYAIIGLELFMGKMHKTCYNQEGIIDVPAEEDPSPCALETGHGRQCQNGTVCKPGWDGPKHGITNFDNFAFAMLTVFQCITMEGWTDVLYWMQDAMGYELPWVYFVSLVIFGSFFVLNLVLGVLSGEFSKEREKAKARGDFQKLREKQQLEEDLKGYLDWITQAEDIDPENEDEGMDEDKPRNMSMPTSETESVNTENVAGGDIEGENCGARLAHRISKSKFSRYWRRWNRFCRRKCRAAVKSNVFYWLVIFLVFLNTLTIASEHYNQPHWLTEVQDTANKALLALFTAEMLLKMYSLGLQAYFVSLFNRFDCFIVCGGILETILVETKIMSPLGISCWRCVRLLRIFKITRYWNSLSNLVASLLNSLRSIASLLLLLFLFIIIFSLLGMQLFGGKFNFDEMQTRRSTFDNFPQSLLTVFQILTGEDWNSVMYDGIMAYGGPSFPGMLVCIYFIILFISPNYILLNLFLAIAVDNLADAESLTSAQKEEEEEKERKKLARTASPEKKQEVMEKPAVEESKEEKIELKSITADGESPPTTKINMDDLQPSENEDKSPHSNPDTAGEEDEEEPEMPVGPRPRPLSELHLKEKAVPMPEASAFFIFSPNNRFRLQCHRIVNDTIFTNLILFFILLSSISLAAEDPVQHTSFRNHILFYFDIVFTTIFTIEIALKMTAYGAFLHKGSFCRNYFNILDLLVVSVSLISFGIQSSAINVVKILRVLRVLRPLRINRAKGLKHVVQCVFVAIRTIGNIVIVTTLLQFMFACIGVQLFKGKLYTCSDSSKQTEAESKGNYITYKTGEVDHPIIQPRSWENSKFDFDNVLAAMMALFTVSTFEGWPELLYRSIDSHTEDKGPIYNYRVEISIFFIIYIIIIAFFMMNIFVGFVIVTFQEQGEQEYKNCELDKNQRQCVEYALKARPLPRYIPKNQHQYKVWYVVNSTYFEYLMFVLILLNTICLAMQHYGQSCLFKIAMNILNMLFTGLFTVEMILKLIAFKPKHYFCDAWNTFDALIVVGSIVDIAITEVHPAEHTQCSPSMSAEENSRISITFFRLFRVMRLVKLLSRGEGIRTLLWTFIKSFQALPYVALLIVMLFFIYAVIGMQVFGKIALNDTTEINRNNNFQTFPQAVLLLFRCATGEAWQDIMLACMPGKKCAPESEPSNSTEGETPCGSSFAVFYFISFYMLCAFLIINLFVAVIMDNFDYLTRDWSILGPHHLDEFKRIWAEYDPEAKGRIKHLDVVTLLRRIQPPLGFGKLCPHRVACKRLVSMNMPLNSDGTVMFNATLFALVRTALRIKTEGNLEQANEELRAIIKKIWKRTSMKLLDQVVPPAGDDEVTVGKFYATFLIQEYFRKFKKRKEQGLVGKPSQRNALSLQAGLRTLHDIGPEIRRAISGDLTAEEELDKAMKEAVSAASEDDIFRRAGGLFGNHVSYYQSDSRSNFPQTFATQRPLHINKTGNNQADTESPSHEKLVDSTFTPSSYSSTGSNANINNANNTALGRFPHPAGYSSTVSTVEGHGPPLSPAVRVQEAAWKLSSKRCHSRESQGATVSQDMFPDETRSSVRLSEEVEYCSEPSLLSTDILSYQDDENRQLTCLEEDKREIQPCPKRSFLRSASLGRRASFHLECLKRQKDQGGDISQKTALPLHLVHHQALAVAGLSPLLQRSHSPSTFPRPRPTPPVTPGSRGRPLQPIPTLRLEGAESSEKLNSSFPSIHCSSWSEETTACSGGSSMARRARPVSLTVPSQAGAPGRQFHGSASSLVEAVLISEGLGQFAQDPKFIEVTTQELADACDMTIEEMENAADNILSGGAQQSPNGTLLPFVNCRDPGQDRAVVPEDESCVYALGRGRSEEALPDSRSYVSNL
T2 sequence (P21554 whole entry): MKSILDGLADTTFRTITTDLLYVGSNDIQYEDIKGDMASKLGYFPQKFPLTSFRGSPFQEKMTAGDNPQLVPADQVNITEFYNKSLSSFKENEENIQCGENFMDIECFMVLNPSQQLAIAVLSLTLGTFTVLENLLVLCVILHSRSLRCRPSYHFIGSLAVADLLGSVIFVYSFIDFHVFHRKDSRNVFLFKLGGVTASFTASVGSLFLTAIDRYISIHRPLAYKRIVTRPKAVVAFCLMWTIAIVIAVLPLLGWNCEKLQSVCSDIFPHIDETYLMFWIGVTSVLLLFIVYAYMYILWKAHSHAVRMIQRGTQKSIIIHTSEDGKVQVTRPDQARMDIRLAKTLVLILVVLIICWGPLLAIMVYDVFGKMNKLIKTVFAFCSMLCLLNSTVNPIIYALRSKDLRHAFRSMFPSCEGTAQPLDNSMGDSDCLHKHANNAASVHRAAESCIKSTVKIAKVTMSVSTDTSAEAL
Chain of Muscarinic acetylcholine receptor M3 (P20309 whole entry): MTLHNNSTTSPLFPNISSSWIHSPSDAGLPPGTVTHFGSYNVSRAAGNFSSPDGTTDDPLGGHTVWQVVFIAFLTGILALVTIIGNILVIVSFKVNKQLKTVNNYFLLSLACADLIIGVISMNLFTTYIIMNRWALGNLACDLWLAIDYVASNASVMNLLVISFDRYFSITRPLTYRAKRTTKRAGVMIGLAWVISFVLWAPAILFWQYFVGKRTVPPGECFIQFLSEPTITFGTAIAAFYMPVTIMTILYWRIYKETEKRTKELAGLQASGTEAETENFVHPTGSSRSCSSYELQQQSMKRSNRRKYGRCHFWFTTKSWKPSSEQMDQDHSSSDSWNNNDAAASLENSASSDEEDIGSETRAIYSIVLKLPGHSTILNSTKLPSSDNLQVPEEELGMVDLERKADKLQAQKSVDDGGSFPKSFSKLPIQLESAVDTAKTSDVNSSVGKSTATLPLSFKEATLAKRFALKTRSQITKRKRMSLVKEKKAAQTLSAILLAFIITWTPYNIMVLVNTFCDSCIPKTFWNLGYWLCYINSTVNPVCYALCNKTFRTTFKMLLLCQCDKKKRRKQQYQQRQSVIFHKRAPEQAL

`CCCCCCCC(=O)N[C@H](CN1CCCC1)[C@H](O)c1ccc2c(c1)OCCO2`: the AC50 on Adenosine receptor A1 is above 30 µM.
Take `C[C@]12CC[C@H](O)CC1=CC[C@@H]1[C@@H]2CC[C@]2(C)C(c3cccnc3)=CC[C@@H]12` [ABIRATERONE]: the AC50 in [1] is above 30 µM; at Histamine H1 receptor, above 10 µM; at Cannabinoid receptor 1 [2] it was above 10 µM; at Mu-type opioid receptor [3], above 30 µM; in experiment [4], above 10 µM; at Histamine H3 receptor it was above 10 µM. Further, the AC50 is above 10 µM in experiment [5], above 30 µM at Estrogen receptor, above 10 µM in experiment [6] and above 30 µM at Melanocortin receptor 4.
Take `C[C@H]1C[C@H]2[C@@H]3CCC4=CC(=O)C=C[C@]4(C)[C@@]3(Cl)[C@@H](O)C[C@]2(C)[C@@]1(O)C(=O)CO` [BECLOMETHASONE]: the AC50 on Cannabinoid receptor 1 [2] is above 10 µM; at Mu-type opioid receptor [3], above 30 µM; at Histamine H3 receptor, above 10 µM; in experiment [5], above 10 µM; at Estrogen receptor it was above 30 µM; on Endothelin-1 receptor, above 30 µM. This molecule also showed an AC50 on Melanocortin receptor 4 above 30 µM.
The molecule `C[C@@H](O)[C@H]1C(=O)N2C(C(=O)[O-])=C(SC3Cn4cnc[n+]4C3)[C@H](C)[C@H]12` (some centres not stated) [BIAPENEM] returned an AC50 at Adenosine receptor A1 above 30 µM.
For the molecule `NS(=O)(=O)c1cc(C2(O)NC(=O)c3ccccc32)ccc1Cl` (configuration not stated) [CHLORTHALIDONE], the AC50 at Mu-type opioid receptor [7] is above 30 µM; on Cannabinoid receptor 1 [2] it was above 10 µM; on Mu-type opioid receptor [3] it was above 30 µM; in [4], above 10 µM; in [5] it was above 10 µM; in experiment [6], above 10 µM. The AC50 at Melanocortin receptor 4 is above 10 µM.
Turning to `COc1ccc2c(c1)[C@]13CCCC[C@@H]1[C@H](C2)N(C)CC3` [DEXTROMETHORPHAN], the half-maximal activity concentration (AC50) is above 30 µM on Mu-type opioid receptor [7]; above 10 µM at Cannabinoid receptor 1 [2]; 2.7 µM on Mu-type opioid receptor [3]; above 10 µM in [4]; above 10 µM on Histamine H3 receptor; above 10 µM in experiment [5]. Besides, the AC50 at Estrogen receptor is above 30 µM; in experiment [6], above 10 µM; at Endothelin-1 receptor, above 30 µM; on Melanocortin receptor 4, above 30 µM.
With `O=c1oc2ccccc2c(O)c1Cc1c(O)c2ccccc2oc1=O` [DICUMAROL], the AC50 at Mu-type opioid receptor [7] is above 30 µM; on Cannabinoid receptor 1 [2], above 10 µM; on Mu-type opioid receptor [3], above 30 µM; in experiment [4], above 10 µM; in [5], above 10 µM; in experiment [6], above 10 µM. The molecule also displayed an AC50 on Melanocortin receptor 4 above 10 µM.
Take `CCn1cc(C(=O)O)c(=O)c2cc(F)c(N3CCNCC3)nc21` [ENOXACIN]: the AC50 was above 10 µM on Cannabinoid receptor 1 [2]; above 10 µM at Mu-type opioid receptor [3]; above 10 µM in [4]; above 10 µM on Histamine H3 receptor; above 10 µM in experiment [5]; above 30 µM at Estrogen receptor. In addition, the figures for the AC50 (in experiment [6]; at Endothelin-1 receptor; at Melanocortin receptor 4) were above 10 µM, 11.3 µM and above 30 µM, respectively.
Turning to `COc1cccc(N(C)C(=S)Oc2ccc3c(c2)CCCC3)n1` [LIRANAFTATE], the AC50 (in [1]; at Mu-type opioid receptor [7]; on Histamine H1 receptor; in experiment [8]; in [4]; at Cannabinoid receptor 1 [9]) was above 30 µM in each case. Moreover, the AC50 is above 30 µM at Histamine H3 receptor; above 30 µM in experiment [5]; above 30 µM on Estrogen receptor; above 30 µM in experiment [6]; above 30 µM at Endothelin-1 receptor; 7.4 µM in experiment [10].
Consider `C#C[C@]1(O)CC[C@H]2[C@@H]3CCc4cc(OC)ccc4[C@H]3CC[C@@]21C` [MESTRANOL], for which the AC50 on Mu-type opioid receptor [7] is above 30 µM; on Cannabinoid receptor 1 [2], above 10 µM; at Mu-type opioid receptor [3], above 30 µM; in [4], above 10 µM; in [5] it was above 10 µM; on Estrogen receptor, 0.136 µM. Also, the AC50 (in experiment [6]; on Melanocortin receptor 4) was above 10 µM in each case.
On to `CNCCCC1c2ccccc2C=Cc2ccccc21` [PROTRIPTYLINE], for which the AC50 at Cannabinoid receptor 1 [2] was above 10 µM; at Mu-type opioid receptor [3], above 10 µM; in [4], above 10 µM; in experiment [5], above 10 µM; on Estrogen receptor it was above 10 µM; in experiment [6], 1.8 µM. This molecule also showed an AC50 at Melanocortin receptor 4 above 10 µM.
In the case of `CC(C)=CCOc1ccc(/C=C/C(=O)c2ccc(OCC=C(C)C)cc2OCC(=O)O)cc1` [SOFALCONE], the AC50 in experiment [1] was above 30 µM; at Mu-type opioid receptor [7], above 30 µM; on Histamine H1 receptor it was above 30 µM; in [8] it was 25 µM; in experiment [4], above 30 µM; on Cannabinoid receptor 1 [9], 11 µM. Besides, the AC50 (at Histamine H3 receptor; in experiment [5]; at Estrogen receptor; in experiment [6]; on Endothelin-1 receptor; in experiment [10]) was above 30 µM in each case.
Regarding `CN(C)c1cc(NC(=O)CNC(C)(C)C)c(O)c2c1C[C@H]1C[C@H]3[C@H](N(C)C)C(O)=C(C(N)=O)C(=O)[C@@]3(O)C(O)=C1C2=O` [TIGECYCLINE], the AC50 (in experiment [1]; at Mu-type opioid receptor [7]; at Histamine H1 receptor; on Cannabinoid receptor 1 [2]; in experiment [4]; on Histamine H3 receptor) was above 30 µM throughout. For the same molecule, the AC50 (in experiment [5]; on Estrogen receptor; in [6]; in experiment [10]; at Melanocortin receptor 4) was above 30 µM in each case.
As for `OCCN1CCN(CC/C=C2/c3ccccc3Sc3ccc(Cl)cc32)CC1` [ZUCLOPENTHIXOL], the AC50 in [1] was above 10 µM; at Mu-type opioid receptor [7], above 30 µM; on Histamine H1 receptor, 0.028 µM; on Cannabinoid receptor 1 [2] it was above 10 µM; at Mu-type opioid receptor [3] it was above 10 µM; in experiment [4] it was above 10 µM. In addition, the AC50 in [5] was above 10 µM; in [6], above 10 µM; in experiment [10] it was 0.51 µM; at Melanocortin receptor 4 it was above 10 µM.
